Test results taken from ChEMBL document CHEMBL5137083 (J Med Chem, 2022).

Experiments:
Set-up in all cases: species or system Cell membrane
[1] = target: T1, Melatonin receptor type 1B (Homo sapiens, UniProt P49286); assay: Displacement of 2-[125I]iodomelatonin from human melatonin MT2 receptor stably expressing in human HEK293 cell membranes in presence of light-activated compounds by radioligand based competition binding assay
T1 sequence (P49286 whole entry): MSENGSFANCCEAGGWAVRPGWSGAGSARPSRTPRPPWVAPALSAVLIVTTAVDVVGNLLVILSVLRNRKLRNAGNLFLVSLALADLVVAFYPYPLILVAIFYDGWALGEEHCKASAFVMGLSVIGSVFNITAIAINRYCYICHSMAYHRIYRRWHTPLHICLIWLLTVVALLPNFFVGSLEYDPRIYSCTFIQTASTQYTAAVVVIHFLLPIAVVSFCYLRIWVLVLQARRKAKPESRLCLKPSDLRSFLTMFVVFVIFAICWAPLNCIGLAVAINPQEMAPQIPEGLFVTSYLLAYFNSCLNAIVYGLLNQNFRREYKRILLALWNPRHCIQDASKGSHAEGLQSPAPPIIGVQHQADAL

[2] = target: T2, Melatonin receptor type 1A (Homo sapiens, UniProt P48039); assay: Displacement of 2-[125I]iodomelatonin from human melatonin MT1 receptor stably expressing in human HEK293 cell membranes under dark condition by radioligand based competition binding assay
[3] = target: T1, Melatonin receptor type 1B; assay: Displacement of 2-[125I]iodomelatonin from human melatonin MT2 receptor stably expressing in human HEK293 cell membranes under dark condition by radioligand based competition binding assay
[4] = target: T2, Melatonin receptor type 1A; assay: Displacement of 2-[125I]iodomelatonin from human melatonin MT1 receptor stably expressing in human HEK293 cell membranes in presence of light-activated compounds by radioligand based competition binding assay

T2 sequence (P48039 whole entry): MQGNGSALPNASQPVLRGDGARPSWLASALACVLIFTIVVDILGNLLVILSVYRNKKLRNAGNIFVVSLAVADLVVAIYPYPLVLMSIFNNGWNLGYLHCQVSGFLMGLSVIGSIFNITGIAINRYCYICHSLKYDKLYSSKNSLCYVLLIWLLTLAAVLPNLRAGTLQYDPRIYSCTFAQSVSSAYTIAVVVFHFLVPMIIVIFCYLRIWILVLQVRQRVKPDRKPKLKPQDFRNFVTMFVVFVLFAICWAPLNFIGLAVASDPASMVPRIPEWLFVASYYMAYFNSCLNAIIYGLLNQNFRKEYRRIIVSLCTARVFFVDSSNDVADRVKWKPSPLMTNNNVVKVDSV

Ki [1]: 6.92 nM | Ki [2]: 51.3 nM | Ki [3]: 39.8 nM | Ki [4]: 7.76 nM
SMILES: COc1ccc2c(c1)c(CCNC(C)=O)cn2C(=O)OCc1cc(OC)c(OC)cc1[N+](=O)[O-]
